In the supplement of paper PMC13380429:

Legend:
Settings in all cases: 72 h
Calu-3 [1] = assay: drug sensitivity score (DSS) for viability; higher = more toxic; extreme values may be limits of the assay
HepG2 [2] = assay: as above
Vero E6 [3] = assay: as above
U2OS [4] = assay: as above
Calu-3 [5] = assay: cell viability relative to DMSO; higher = less toxic
Caco-2 [6] = assay: as above
HepG2 [7] = assay: as above
Vero E6 [8] = assay: as above
U2OS [9] = assay: as above
Caco-2 [10] = assay: drug sensitivity score (DSS) for viability; higher = more toxic; extreme values may be limits of the assay
Vero E6 [11] = assay: relative viability EC50 (midpoint between 100% and the lowest measured viability); higher = less toxic
U2OS [12] = assay: as above
Calu-3 [13] = assay: as above
HepG2 [14] = assay: as above
Caco-2 [15] = assay: as above

Row | SMILES | drug sensitivity score (Calu-3 [1]) | drug sensitivity score (HepG2 [2]) | drug sensitivity score (Vero E6 [3]) | drug sensitivity score (U2OS [4]) | cell viability (Calu-3 [5]; 1 nM) | cell viability (Calu-3 [5]; 10 nM) | cell viability (Calu-3 [5]; 100 nM) | cell viability (Calu-3 [5]; 1000 nM) | cell viability (Calu-3 [5]; 10000 nM) | cell viability (Caco-2 [6]; 1 nM) | cell viability (Caco-2 [6]; 10 nM) | cell viability (Caco-2 [6]; 100 nM) | cell viability (Caco-2 [6]; 1000 nM) | cell viability (Caco-2 [6]; 10000 nM) | cell viability (HepG2 [7]; 1 nM) | cell viability (HepG2 [7]; 10 nM) | cell viability (HepG2 [7]; 100 nM) | cell viability (HepG2 [7]; 1000 nM) | cell viability (HepG2 [7]; 10000 nM) | cell viability (Vero E6 [8]; 1 nM) | cell viability (Vero E6 [8]; 10 nM) | cell viability (Vero E6 [8]; 100 nM) | cell viability (Vero E6 [8]; 1000 nM) | cell viability (Vero E6 [8]; 10000 nM) | cell viability (U2OS [9]; 1 nM) | cell viability (U2OS [9]; 10 nM) | cell viability (U2OS [9]; 100 nM) | cell viability (U2OS [9]; 1000 nM) | cell viability (U2OS [9]; 10000 nM) | drug sensitivity score (Caco-2 [10]) | relative viability EC50 (Vero E6 [11]) | relative viability EC50 (U2OS [12]) | relative viability EC50 (Calu-3 [13]) | relative viability EC50 (HepG2 [14]) | relative viability EC50 (Caco-2 [15])
1 | COC(=O)c1ccc(O)cc1 [methylparaben] | 0 | 0 | 0 | 0 | – | – | – | – | – | – | – | – | – | – | – | – | – | – | – | – | – | – | – | – | – | – | – | – | – | – | – | – | – | – | –
2 | O=C(O)C[C@H](O)C[C@H](O)/C=C/c1c(C2CC2)nc2ccccc2c1-c1ccc(F)cc1 [pitavastatin] | 4.4 | 2.9 | 8.5 | 9.4 | 103% | 98.1% | 99.2% | 84.7% | 56.4% | 103% | 93.6% | 97.3% | 89.4% | 70.3% | 88.5% | 97.1% | 82% | 95.7% | 57.1% | 93.9% | 105% | 88.7% | 78% | 6.4% | 98.7% | 97% | 100% | 68.3% | 9.6% | 2.4 | 1620 nM | 1280 nM | – | – | –
3 | CS[C@H]1SC[C@H]2C(=O)N(C)[C@@H](C(C)C)C(=O)OC[C@@H](NC(=O)c3cnc4ccccc4n3)C(=O)N[C@@H](C)C(=O)N(C)[C@@H]1C(=O)N(C)[C@@H](C(C)C)C(=O)OC[C@@H](NC(=O)c1cnc3ccccc3n1)C(=O)N[C@@H](C)C(=O)N2C [echinomycin] | 41.3 | 42.9 | 31.7 | 47.9 | 57.6% | 16% | 27.3% | 35.5% | 36.2% | 63.1% | 54.7% | 57.2% | 63.2% | 75.9% | 77.1% | 9.7% | 6.7% | 7% | 7.7% | 104% | 90.4% | 2.1% | 4.6% | 1% | 54.1% | 0.5% | 0.6% | 2.3% | 1.8% | 22.8 | 24 nM | 1.1 nM | < 1 nM | 1.8 nM | –
4 | Cc1cc(F)c(Nc2ncnc3cc(OCc4ccccc4)ccc23)cc1O | 0.6 | 0.2 | 0.7 | 0.9 | 104% | 95.1% | 89.4% | 104% | 76.9% | 101% | 96.6% | 88.4% | 79.4% | 74% | 105% | 95.5% | 106% | 100% | 85.5% | 99.9% | 103% | 99.3% | 96.2% | 84% | 97.9% | 101% | 96.8% | 102% | 72.9% | 4 | > 10000 nM | – | > 10000 nM | > 10000 nM | –
5 | C[C@]12CC[C@@H]3c4ccc(O)cc4CC[C@H]3[C@@H]1CCC2=O [estrone] | 0 | 0 | 0 | 0 | – | – | – | – | – | – | – | – | – | – | – | – | – | – | – | – | – | – | – | – | – | – | – | – | – | – | – | – | – | – | –
6 | CN(C)CCCN1c2ccccc2Sc2ccc(Cl)cc21 [chlorpromazine] | 0.9 | 3.9 | 2.2 | 0.1 | 110% | 97% | 109% | 102% | 73.8% | 96.3% | 97.3% | 96.5% | 105% | 88.9% | 96.5% | 102% | 105% | 91.3% | 52.4% | 98.5% | 98.8% | 97.4% | 99.6% | 56.9% | 98.9% | 100% | 93.6% | 102% | 86.2% | 0 | – | > 10000 nM | – | – | > 10 µM
7 | CCc1c2c(nc3ccc(OC(=O)N4CCC(N5CCCCC5)CC4)cc13)-c1cc3c(c(=O)n1C2)COC(=O)[C@]3(O)CC [irinotecan] | 6.5 | 14.4 | 1.6 | 3.8 | 103% | 94.7% | 93.7% | 69.3% | 47.5% | 95.1% | 91.6% | 95.5% | 90.9% | 61.5% | 95.4% | 99.2% | 76.9% | 37.5% | 21.7% | 94.3% | 97.4% | 95.6% | 95.8% | 75.2% | 104% | 97.4% | 98.1% | 88.7% | 59.1% | 3.3 | > 10000 nM | – | 679 nM | 244 nM | –
8 | CC[C@H](CO)Nc1nc(Nc2cccc(-c3ccccn3)c2)c2ncn(C(C)C)c2n1 [DRF053-(R)] | 0.4 | 2.5 | 1 | 0 | 94.7% | 94.9% | 90.7% | 104% | 80.3% | 99.6% | 86.9% | 91.2% | 93.2% | 67.4% | 98.8% | 108% | 107% | 94.5% | 66.2% | 92% | 92.3% | 92.7% | 89.8% | 81.7% | 102% | 101% | 94.7% | 99.6% | 94.4% | 2.4 | > 10000 nM | > 10000 nM | > 10000 nM | – | –
